This note sets out measurements from patent EP3974434B1, “MACROLIDE DERIVATIVES, PREPARATION METHOD AND APPLICATION THEREOF” (Zhejiang Hisun Pharmaceutical Co., Ltd., priority 2019, dated 2020).

Common to all, as to format: biochemical
In one experiment the target is T1, TRKB (Homo sapiens, UniProt Q16620).
T1 construct: purchased Carna bioscience 08-187
Description: HTRF KinEASE-TK kinase activity inhibition assay, TRKB. To be noted: ATP 10 µM. From the text: (§1) The following method was used to determine the inhibition degrees of the compounds of the present invention on the activity of recombinant human NTRK family kinase in vitro. In this method, HTRF®KinEASE-TK tyrosine kinase kit (article number: 62TK0PEB) of Cisbio company was used, and the principle of the kit was based on time-resolved fluorescence resonance energy transfer (TF-FRET), and the inhibition of the compounds on the activity of the NTRK kinase was reflected by determining a phosphorylation degree of a biotinylated polypeptide substrate mediated by NTRK kinase. For detailed experimental operation, please refer to the kit instruction. Recombinant human wild-type NTRK proteins were purchased from Carna bioscience (the article numbers were TRKA #08-186, TRKB #08-187 and TRKC #08-197 respectively), and recombinant human mutant NTRK proteins were purchased from SignalChem (the article numbers were TRKA G595R #N16-12BG-10, TRKA G667C # N16-12CG-10, and TRKC G623R # N18-12CH-10 respectively).
(§2) The experimental methods were operated according to the steps in the kit instruction, and were briefly described as follows: a test compound was first dissolved in DMSO to prepare a storage solution, and then diluted in gradient with a buffer provided in the kit. A final concentration of the test compound in the reaction system ranged from 1,000 nM to 0.004 nM. An ATP Km value concentration of each NTRK protein was determined by using an ATP solution diluted in gradient (Sangon Biotech (Shanghai) Co., Ltd., A600311). According to the Km value obtained, the ATP concentrations in the reaction system were set as 100 µM for TRKA, 10 µM for TRKB, 50 µM for TRKC, 7 µM for TRKA(G595R), 1 µM for TRKA(G667C) and 100 µM for TRKC(G623R). The reaction was carried out in a 384-well microplate. Firstly, the compound and a certain amount of corresponding NTRK protein were added to the wells and incubated for 5 minutes to 10 minutes at room temperature. Then, the ATP solution and the biotinylated polypeptide substrate solution were added to the reaction solution and incubated with shaking at room temperature for 60 minutes. Then, an anti-phosphorylated tyrosine antibody coupled with a europium compound and streptavidin coupled with modified allophycocyanin XL665 were added to the reaction, and continuously incubated with shaking at room temperature for 1 hour. After incubation, fluorescence intensity values of each well at an excitation wavelength of 304 nm, and emission wavelengths of 620 nm and 665 nM were determined in a TF-FRET mode on a microplate reader. Compared with the fluorescence intensity ratio of a control group (0.1% DMSO), the percentage inhibition rates of the compound at each concentration were calculated, and the IC50 value of the compound was obtained by performing nonlinear regression analysis for logarithmic value of the compound concentration - inhibition rate by GraphPad Prism 5 software, which can be seen in Table 1. Table 1 IC50 data of the compounds of the present invention on TRK enzyme activity inhibition
Background: Time-resolved FRET reads energy transfer from a long-lived donor to a nearby acceptor.

A further experiment addresses T2, TRKA (Homo sapiens, UniProt P04629).
T2 construct: purchased Carna bioscience 08-186
The experiment can be described thus: HTRF KinEASE-TK kinase activity inhibition assay, TRKA. To be noted: ATP 100 µM.
From the text: as §1, §2

The target in the next experiment is T3, ALK(L1196M, G1202R) (Homo sapiens, UniProt Q9UM73, G1202R/L1196M).
T3 construct: purchased SignalChem A19-12NG-10
T3 sequence (Q9UM73 19-1620 L1196M/G1202R): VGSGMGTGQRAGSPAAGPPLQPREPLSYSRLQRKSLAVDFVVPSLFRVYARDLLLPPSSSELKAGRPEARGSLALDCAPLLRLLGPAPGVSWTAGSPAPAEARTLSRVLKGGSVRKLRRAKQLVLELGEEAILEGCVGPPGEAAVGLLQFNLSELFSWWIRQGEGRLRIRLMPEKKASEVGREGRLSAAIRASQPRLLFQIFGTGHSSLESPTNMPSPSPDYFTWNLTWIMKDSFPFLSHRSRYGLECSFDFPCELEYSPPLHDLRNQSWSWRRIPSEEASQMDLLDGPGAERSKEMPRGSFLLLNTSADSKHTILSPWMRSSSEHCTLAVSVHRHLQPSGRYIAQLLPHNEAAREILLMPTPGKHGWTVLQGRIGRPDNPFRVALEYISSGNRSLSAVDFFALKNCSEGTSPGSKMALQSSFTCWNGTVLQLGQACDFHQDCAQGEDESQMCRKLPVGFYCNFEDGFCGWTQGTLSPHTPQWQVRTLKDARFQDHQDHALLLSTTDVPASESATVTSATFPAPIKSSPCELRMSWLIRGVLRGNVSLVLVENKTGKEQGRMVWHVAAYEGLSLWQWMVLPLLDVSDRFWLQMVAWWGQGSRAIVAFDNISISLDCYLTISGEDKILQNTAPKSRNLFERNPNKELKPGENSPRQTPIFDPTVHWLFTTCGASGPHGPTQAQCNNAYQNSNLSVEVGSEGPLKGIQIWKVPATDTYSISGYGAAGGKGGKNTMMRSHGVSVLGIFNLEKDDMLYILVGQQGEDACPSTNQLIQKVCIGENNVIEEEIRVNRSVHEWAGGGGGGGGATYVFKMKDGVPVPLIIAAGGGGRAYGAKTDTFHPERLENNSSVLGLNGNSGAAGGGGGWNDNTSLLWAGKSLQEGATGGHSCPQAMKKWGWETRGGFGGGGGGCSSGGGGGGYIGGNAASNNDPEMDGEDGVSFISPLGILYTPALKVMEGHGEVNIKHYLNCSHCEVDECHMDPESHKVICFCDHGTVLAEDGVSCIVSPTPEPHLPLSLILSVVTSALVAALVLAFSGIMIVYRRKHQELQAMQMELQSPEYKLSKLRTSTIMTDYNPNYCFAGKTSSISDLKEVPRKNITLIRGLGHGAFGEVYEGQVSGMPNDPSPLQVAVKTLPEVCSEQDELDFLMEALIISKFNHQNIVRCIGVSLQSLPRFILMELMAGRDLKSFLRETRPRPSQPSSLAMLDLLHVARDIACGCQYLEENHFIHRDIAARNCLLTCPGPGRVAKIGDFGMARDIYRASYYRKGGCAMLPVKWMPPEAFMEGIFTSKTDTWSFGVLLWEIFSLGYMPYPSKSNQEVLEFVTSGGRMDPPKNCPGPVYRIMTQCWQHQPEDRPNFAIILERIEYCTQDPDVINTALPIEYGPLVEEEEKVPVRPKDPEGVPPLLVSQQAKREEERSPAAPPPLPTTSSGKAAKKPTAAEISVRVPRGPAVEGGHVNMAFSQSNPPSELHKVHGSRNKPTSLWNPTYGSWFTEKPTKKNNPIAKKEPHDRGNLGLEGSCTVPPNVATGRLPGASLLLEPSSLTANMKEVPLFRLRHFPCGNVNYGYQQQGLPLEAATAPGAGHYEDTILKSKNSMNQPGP
The experiment can be described thus: HTRF KinEASE-TK kinase activity inhibition assay, ALK(L1196M, G1202R). To be noted: ATP 25 µM. The source says: The following method was used to determine the inhibition degrees of the compounds of the present invention on the activities of recombinant human ALK(G1202R) and ALK(L1196M, G1202R) kinases in vitro. In this method, HTRF®KinEASE-TK tyrosine kinase kit (article No. 62TK0PEB) of Cisbio company was used, the principle of the kit was based on time-resolved fluorescence resonance energy transfer (TF-FRET), and the inhibitions of the compounds on the activities of the ALK(G1202R) and ALK(L1196M, G1202R) kinases were reflected by determining a phosphorylation degree of a biotinylated polypeptide substrate mediated by ALK kinase. For detailed experimental operation, please refer to the kit instruction. […]
The experimental flow was briefly described as follows: a test compound was first dissolved in DMSO to prepare a storage solution, and then diluted in gradient with a buffer provided in the kit. […] An ATP Km value concentration of each ALK protein was determined by using an ATP solution diluted in gradient (Sangon Biotech (Shanghai) Co., Ltd., A600311). […] After incubation, fluorescence intensity values of each well at an excitation wavelength of 304 nm, and emission wavelengths of 620 nm and 665 nM were determined in a TF-FRET mode on a microplate reader, and the fluorescence intensity ratio 665/620 of each hole was calculated. […]

The structures appear in SMILES notation.

T1 sequence (Q16620 32-822): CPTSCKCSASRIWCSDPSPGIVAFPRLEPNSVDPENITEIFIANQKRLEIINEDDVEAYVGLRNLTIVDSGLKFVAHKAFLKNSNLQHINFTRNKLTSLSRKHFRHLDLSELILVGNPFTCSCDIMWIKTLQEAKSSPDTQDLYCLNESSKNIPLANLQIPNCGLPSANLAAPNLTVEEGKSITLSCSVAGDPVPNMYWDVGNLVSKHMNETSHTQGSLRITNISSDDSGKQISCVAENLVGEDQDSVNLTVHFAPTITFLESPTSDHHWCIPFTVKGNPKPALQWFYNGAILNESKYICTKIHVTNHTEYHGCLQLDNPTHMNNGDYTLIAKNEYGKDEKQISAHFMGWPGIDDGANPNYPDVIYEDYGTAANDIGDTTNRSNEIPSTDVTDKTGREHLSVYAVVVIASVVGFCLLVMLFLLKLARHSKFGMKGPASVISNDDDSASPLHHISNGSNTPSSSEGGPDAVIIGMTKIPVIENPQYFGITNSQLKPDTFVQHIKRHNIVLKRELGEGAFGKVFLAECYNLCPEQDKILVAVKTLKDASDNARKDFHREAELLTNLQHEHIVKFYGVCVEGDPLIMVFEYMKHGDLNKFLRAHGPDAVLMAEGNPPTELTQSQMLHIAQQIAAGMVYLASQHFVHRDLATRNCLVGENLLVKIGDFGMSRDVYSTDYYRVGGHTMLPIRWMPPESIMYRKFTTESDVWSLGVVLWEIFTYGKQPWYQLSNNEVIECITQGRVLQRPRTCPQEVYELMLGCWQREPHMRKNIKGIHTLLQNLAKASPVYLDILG
T2 sequence (P04629 33-796): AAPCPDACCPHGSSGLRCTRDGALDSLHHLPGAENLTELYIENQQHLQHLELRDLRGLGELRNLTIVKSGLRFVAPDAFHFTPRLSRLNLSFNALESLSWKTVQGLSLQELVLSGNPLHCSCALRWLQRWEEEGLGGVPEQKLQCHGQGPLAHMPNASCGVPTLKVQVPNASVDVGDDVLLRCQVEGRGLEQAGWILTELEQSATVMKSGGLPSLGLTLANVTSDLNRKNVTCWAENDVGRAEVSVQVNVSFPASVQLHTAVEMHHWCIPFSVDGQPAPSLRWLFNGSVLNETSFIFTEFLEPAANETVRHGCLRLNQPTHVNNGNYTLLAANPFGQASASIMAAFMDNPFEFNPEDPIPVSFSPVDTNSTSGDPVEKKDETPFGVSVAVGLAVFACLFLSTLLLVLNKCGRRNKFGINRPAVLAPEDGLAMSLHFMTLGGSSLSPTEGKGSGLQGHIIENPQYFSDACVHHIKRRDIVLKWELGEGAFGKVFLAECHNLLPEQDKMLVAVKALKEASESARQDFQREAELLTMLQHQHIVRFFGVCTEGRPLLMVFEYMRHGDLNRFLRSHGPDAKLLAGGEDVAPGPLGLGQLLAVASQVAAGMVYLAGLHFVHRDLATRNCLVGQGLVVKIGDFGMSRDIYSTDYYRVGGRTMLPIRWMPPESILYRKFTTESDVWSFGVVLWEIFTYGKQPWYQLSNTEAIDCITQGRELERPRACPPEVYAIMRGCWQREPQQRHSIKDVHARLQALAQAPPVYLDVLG

As for `C[C@H]1Nc2ccn3ncc(c3n2)C(=O)NC[C@@]2(C)Cc3cc(F)cc1c3O2` [Example 8, (3R,11R)-6-fluoro-3,11-dimethyl-10-oxa-2,13,17,1 8,21-pentaazapentacyclo[13.5.2.1^8,11.0^4,9.0^18,22]tric osa-1(21),4,6,8,15(22),16,19-heptaen-14-one], the IC50 (in general, the concentration that inhibits the measured activity by half) against TRKB amounted to 0.45 nM; at TRKA, 0.56 nM; against ALK(L1196M, G1202R) it was 20.7 nM.

Regarding `C[C@H]1Nc2ccn3nc(N)c(c3n2)C(=O)NC[C@@]2(C)Cc3cc(F)cc1c3O2` [Example 25, (3R,11R)-16-amino-6-fluoro-3,11-dimethyl-10-oxa-2,13,17,18,21-pentaazapentacyclo[13.5.2.1^8,11.0^4,9. 0^18,22]tricosa-1(21),4,6,8,15(22),16,19-heptaen-14-one], the IC50 at TRKB worked out at 1.17 nM; against TRKA, 0.82 nM; against ALK(L1196M, G1202R), 24.2 nM.
